Measured values taken from patent publication US9073876B2, “Flap modulators” (JANSSEN PHARMACEUTICA NV, priority 2013, dated 2015).
Structures can show the parent of a compound that is named as a salt.

Columns and labels:
[1] = tested on: leukotriene pathway in human whole blood (LTB4 levels); assay: Human whole blood assay (LTB4); format: cell-based; conditions: human whole blood diluted 1:1 in RPMI, stimulated with calcium ionophore A23187; single replicate
Experimental: The ability of the compounds of the present invention to treat a FLAP-mediated disease and/or disorder, or associated symptoms or complications thereof, was determined using the following procedures. Binding assay data represent the average value obtained from two different assay plates, with samples run in duplicate on each plate. Human whole blood assay data represent a single replicate on an assay plate using whole blood from at least one healthy donor.
An in vitro cellular assay was performed using human whole blood collected in heparin-containing tubes, which was used to test the ability of compounds to modulate the leukotriene pathway in human whole blood. The blood was diluted 1:1 in RPMI medium, pre-incubated for 15 min at 37° Celsius with test compounds at various concentrations, and then stimulated with calcium ionophore, A23187 (7 μg/mL), for 30 min at 37° Celsius. The samples were then centrifuged and plasma was removed. The plasma was diluted in assay buffer and LTB4 levels were measured using a commercial kit (Enzo Life Sciences). The concentration of each compound that was required for half-maximal inhibition (modulation) of recombinant enzyme activity (IC50) was calculated by a 4-parameter equation using the program GraphPad Prism (GraphPad software).

human FLAP = human FLAP (Homo sapiens (Human), UniProt P20292); assay: FLAP binding assay (HTRF); conditions: human FLAP-containing membranes, HTRF format; average of two assay plates, duplicates; read-out: FLAP Binding wild type HTRF Ki
Sequence of human FLAP (P20292 whole entry): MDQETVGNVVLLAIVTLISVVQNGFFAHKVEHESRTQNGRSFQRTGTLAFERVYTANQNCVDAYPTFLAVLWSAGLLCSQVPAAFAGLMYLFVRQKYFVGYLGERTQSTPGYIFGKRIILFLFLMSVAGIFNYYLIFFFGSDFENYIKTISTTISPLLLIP
How it was run: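 Read-out is the HTRF ratio. Each reported figure averages two assay plates on which samples were tested in duplicate.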

Row | IC50 [1] [µM] | Ki (human FLAP) [µM] | SMILES
1 | 0.494 | 0.0704 | Cc1ccnc(Oc2c(C3CCC3)ccc(-c3cnc(N)nc3)c2F)n1 [Example 163, 5-{4-Cyclobutyl-2-fluoro-3-[(4-methylpyrimidin-2-yl)oxy]phenyl}pyrimidin-2-amine]
2 | 0.0586 | 0.005 | Nc1cnc(-c2ccc(C3CCC3)c(Oc3cc(C4CC4)ncn3)c2F)cn1 [Example 141, 5-{4-Cyclobutyl-3-[(6-cyclopropylpyrimidin-4-yl)oxy]-2-fluorophenyl}pyrazin-2-amine]
3 | > 1 | 0.005 | CS(=O)(=O)c1ccnc(Oc2c(C3CCC3)ccc(-c3cnc(N)cn3)c2F)n1 [Example 95, 5-(4-Cyclobutyl-2-fluoro-3-{[4-(methylsulfonyl)pyrimidin-2-yl]oxy}phenyl)pyrazin-2-amine]
4 | 0.312 | 0.113 | CC(C)Cc1ccc(-c2cnc(N)cn2)c(F)c1Oc1nccc(N)n1 [Example 328, 2-(3-(5-Aminopyrazin-2-yl)-2-fluoro-6-isobutylphenoxy)pyrimidin-4-amine]
5 | 3.43 | 0.25 | Fc1c(-c2cnc3c(c2)OCCN3)ccc(C2CCC2)c1OCc1ccc(C(F)(F)F)cc1 [Example 191, 7-(4-Cyclobutyl-2-fluoro-3-{[4-(trifluoromethyl)benzyl]oxy}phenyl)-3,4-dihydro-2H-pyrido[3,2-b][1,4]oxazine]
6 | 0.0308 | 0.003 | COc1ccnc(Oc2c(C3CCC3)ccc(-c3cnc(N)cn3)c2F)n1 [Example 93, 5-{4-Cyclobutyl-2-fluoro-3-[(4-methoxypyrimidin-2-yl)oxy]phenyl}pyrazin-2-amine]
7 | 1.96 | 0.17 | Nc1cnc(-c2ccc(C3CCC3)c(OCc3c(F)cccc3F)c2F)cn1 [Example 31, 5-{4-Cyclobutyl-3-[(2,6-difluorobenzyl)oxy]-2-fluorophenyl}pyrazin-2-amine]
8 | 0.0338 | 0.007 | Cc1cc(Oc2c(C3CCC3)ccc(-c3cnc(N)cn3)c2F)nc(N)n1 [Example 96, 4-[3-(5-aminopyrazin-2-yl)-6-cyclobutyl-2-fluorophenoxy]-6-methylpyrimidin-2-amine]
9 | 0.027 | 0.0024 | Nc1cnc(-c2ccc(C3CCC3)c(Oc3ncc(-c4cnc(N)nc4)cn3)c2F)cn1 [Example 313, 2′-[3-(5-Aminopyrazin-2-yl)-6-cyclobutyl-2-fluorophenoxy]-5,5′-bipyrimidin-2-amine]
10 | 0.11 | 0.0081 | Nc1cnc(-c2ccc(C3CCC3)c(OCC(O)Cn3c(=O)[nH]c4ccccc43)c2F)cn1 (racemic) [Example 311, racemic 1-{3-[3-(5-Aminopyrazin-2-yl)-6-cyclobutyl-2-fluorophenoxy]-2-hydroxypropyl}-1,3-dihydro-2H-benzimidazol-2-one]
11 | 1.43 | 0.0903 | COc1cc(Oc2c(C3CCC3)ccc(-c3cnc(N)nc3)c2F)ncn1 [Example 170, 5-(4-cyclobutyl-2-fluoro-3-((6-methoxypyrimidin-4-yl)oxy)phenyl)pyrimidin-2-amine]
12 | 0.252 | 0.0398 | Nc1ncc(-c2ccc(C3CCC3)c(Oc3cc(O)ncn3)c2F)cn1 [Example 171, 6-[3-(2-Aminopyrimidin-5-yl)-6-cyclobutyl-2-fluorophenoxy]pyrimidin-4-ol trifluoroacetate]
13 | 0.72 | 0.193 | Nc1cnc(-c2ccc(C3CCC3)c(OCc3cc(F)ccc3Cl)c2F)cn1 [Example 45, 5-{3-[(2-Chloro-5-fluorobenzyl)oxy]-4-cyclobutyl-2-fluorophenyl}pyrazin-2-amine]
14 | 4.13 | 0.008 | Nc1cnc(-c2ccc(C3CCC3)c(OCc3cccc(-c4nnn[nH]4)c3)c2F)cn1 [Example 21, 5-(4-Cyclobutyl-2-fluoro-3-{[3-(1H-tetrazol-5-yl)benzyl]oxy}phenyl)pyrazin-2-amine]
15 | 0.26 | 0.0738 | CC(C)(C)Cc1ccc(-c2cnc(N)cn2)c(F)c1Oc1ncccn1 [Example 324, 5-(2-Fluoro-4-neopentyl-3-(pyrimidin-2-yloxy)phenyl)pyrazin-2-amine]

The next lines start with the compound.

Row | SMILES | IC50 [1] [µM] | Ki (human FLAP) [µM]
16 | N#Cc1cccc(COc2c(C3CCC3)ccc(-c3cnc(N)cn3)c2F)n1 [Example 292, 6-{[3-(5-Aminopyrazin-2-yl)-6-cyclobutyl-2-fluorophenoxy]methyl}pyridine-2-carbonitrile trifluoroacetic acid salt] | 0.413 | 0.0372
17 | COc1nc(N)cc(Oc2c(C3CCC3)ccc(-c3cnc(N)cn3)c2F)n1 [Example 100, 6-[3-(5-Aminopyrazin-2-yl)-6-cyclobutyl-2-fluorophenoxy]-2-methoxypyrimidin-4-amine] | 0.0126 | 0.001
18 | Nc1cnc(-c2ccc(C3CCC3)c(OCC(O)Cn3cnccc3=O)c2F)cn1 (racemic) [Example 52, racemic 3-(3-(3-(5-Aminopyrazin-2-yl)-6-cyclobutyl-2-fluorophenoxy)-2-hydroxypropyl)pyrimidin-4(3H)-one] | 0.68 | 0.366
19 | CN(C)c1cc(Oc2c(C3CCC3)ccc(-c3cnc(N)cn3)c2F)ncn1 [Example 237, 6-(3-(5-Aminopyrazin-2-yl)-6-cyclobutyl-2-fluorophenoxy)-N,N-dimethylpyrimidin-4-amine] | 0.0847 | 0.0033
20 | Nc1cnc(-c2ccc(C3CCC3)c(Oc3ccc(C(=O)O)cc3)c2F)cn1 [Example 153, 4-[3-(5-Aminopyrazin-2-yl)-6-cyclobutyl-2-fluorophenoxy]benzoic acid] | 0.424 | 0.0023
21 | Nc1cnc(-c2ccc(C3CCC3)c(OCCNc3ccnc(N)n3)c2F)cn1 [Example 332, N^4-(2-(3-(5-Aminopyrazin-2-yl)-6-cyclobutyl-2-fluoro-phenoxy)ethyl)pyrimidine-2,4-diamine] | 0.45 | 0.0458
22 | Nc1cnc(-c2ccc(C3CCC3)c(Oc3ccncn3)c2F)cn1 [Example 260, 5-(4-Cyclobutyl-2-fluoro-3-(pyrimidin-4-yloxy)phenyl)pyrazin-2-amine] | 0.197 | 0.0199
23 | Cc1nc(Oc2c(C3CCC3)ccc(-c3cnc(N)cn3)c2F)cc(N(C)C)n1 [Example 235, 6-(3-(5-Aminopyrazin-2-yl)-6-cyclobutyl-2-fluorophenoxy)-N,N,2-trimethylpyrimidin-4-amine] | 0.113 | 0.0033
24 | Nc1cnc(-c2ccc(C3CCC3)c(OCc3ccc(Cl)cn3)c2F)cn1 [Example 289, 5-{3-[(5-Chloropyridin-2-yl)methoxy]-4-cyclobutyl-2-fluorophenyl}pyrazin-2-amine trifluoroacetic acid salt] | 0.782 | 0.229
25 | Nc1cnc(-c2ccc(C3CCC3)c(O)c2F)cn1 [B, 3-(5-Aminopyrazin-2-yl)-6-cyclobutyl-2-fluorophenol] | 0.96 | 0.354
26 | Nc1cnc(-c2ccc(C3CCC3)c(Oc3ncccc3Cl)c2F)cn1 [Example 122, 5-{3-[(3-Chloropyridin-2-yl)oxy]-4-cyclobutyl-2-fluorophenyl}pyrazin-2-amine] | 0.46 | 0.004
27 | N#CCOc1c(C2CCC2)ccc(-c2cnc(N)cn2)c1F [Example 276, [3-(5-Aminopyrazin-2-yl)-6-cyclobutyl-2-fluorophenoxy]acetonitrile] | 0.406 | 0.0392
